This is an account of results in PubChem BioAssay AID1259411 (Chemical Carcinogenesis Research Information System (CCRIS), 2018).

The source made the active and inactive calls. The rule behind the calls is not given here.

The series concerns rodent carcinogenicity bioassays, tumor incidence. Nature of the series: CCRIS carcinogenicity studies. The method in brief:
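Archive of carcinogenicity, mutagenicity, tumor promotion and tumor inhibition results drawn from journals, NCI reports and other sources, expert-reviewed; covers 1985-2011 and is no longer updated.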

For the compound `Oc1c(Cl)c(Cl)c(Cl)c(Cl)c1Cl`, the carcinogen call is, setting by setting: (Species: MOUSE, Strain/Sex: B6C3F1/FEMALE, Route: ORAL, Dose: 0, 100, 200, 600 PPM DOWCIDE EC-7 IN FEED FOR 103 WK (STUDY DURATION: 103 WK), Dose: 0, 100, 200, 600 PPM DOWCIDE EC-7 IN FEED FOR 103 WK (STUDY DURATION: 103 WK), Tumor Site: Type of Lesion: ADRENAL GLAND/MEDULLA: PHEOCHROMOCYTOMA: ADRENAL GLAND/MEDULLA: PHEOCHROMOCYTOMA OR MALIGNANT PHEOCHROMOCYTOMA, CIRCULAT) “active; positive”; (Species: MOUSE, Strain/Sex: B6C3F1/FEMALE, Route: ORAL, Dose: 0, 100, 200 PPM TECHNICAL GRADE PENTACHLOROPHENOL IN FEED FOR 103 WK (STUDY DURATION: 103 WK), Dose: 0, 100, 200 PPM TECHNICAL GRADE PENTACHLOROPHENOL IN FEED FOR 103 WK (STUDY DURATION: 103 WK), Tumor Site: Type of Lesion: LIVER: HEPATOCELLULAR ADENOMA OR CARCINOMA, CIRCULATORY SYSTEM: HEMANGIOSARCOMA) “active; positive”; (Species: MOUSE, Strain/Sex: B6C3F1/MALE, Route: ORAL, Dose: 0, 100, 200, 600 PPM DOWCIDE EC-7 IN FEED FOR 103 WK (STUDY DURATION: 103 WK), Dose: 0, 100, 200, 600 PPM DOWCIDE EC-7 IN FEED FOR 103 WK (STUDY DURATION: 103 WK), Tumor Site: Type of Lesion: ADRENAL GLAND/MEDULLA: PHEOCHROMOCYTOMA, ADRENAL GLAND/MEDULLA: PHEOCHROMOCYTOMA OR MALIGNANT PHEOCHROMOCYTOMA, LIVER: H, Tumor Site: Type of Lesion: ADRENAL GLAND/MEDULLA: PHEOCHROMOCYTOMA, ADRENAL GLAND/MEDULLA: PHEOCHROMOCYTOMA OR MALIGNANT PHEOCHROMOCYTOMA, LIVER: H) “active; positive”; (Species: MOUSE, Strain/Sex: B6C3F1/MALE, Route: ORAL, Dose: 0, 100, 200 PPM TECHNICAL GRADE PENTACHLOROPHENOL IN FEED FOR 103 WK (STUDY DURATION: 103 WK), Dose: 0, 100, 200 PPM TECHNICAL GRADE PENTACHLOROPHENOL IN FEED FOR 103 WK (STUDY DURATION: 103 WK), Tumor Site: Type of Lesion: ADRENAL GLAND/MEDULLA: PHEOCHROMOCYTOMA, LIVER: HEPATOCELLULAR ADENOMA, LIVER: HEPATOCELLULAR ADENOMA OR CARCINOMA, Tumor Site: Type of Lesion: ADRENAL GLAND/MEDULLA: PHEOCHROMOCYTOMA, LIVER: HEPATOCELLULAR ADENOMA, LIVER: HEPATOCELLULAR ADENOMA OR CARCINOMA) “active; positive”; (Species: MOUSE, Strain/Sex: B6C3F1/MALE, Route: ORAL, Dose: 0, 1200 PPM IN DIET FOR 13 WK (STUDY DURATION: 42 WK)) “inactive; negative”; (Species: RAT, Strain/Sex: F344/N/FEMALE, Route: ORAL, Dose: 0, 200, 400, 600 PPM IN DIET FOR 105 WK (STUDY DURATION: 105 WK), Dose: 0, 200, 400, 600 PPM IN DIET FOR 105 WK (STUDY DURATION: 105 WK)) “inactive; negative”. Besides, the carcinogen call runs as follows: (Species: RAT, Strain/Sex: F344/N/FEMALE, Route: ORAL, Dose: 0, 1000 PPM IN DIET FOR 52 WK (STUDY DURATION: 105 WK)) “inactive; negative”; (Species: RAT, Strain/Sex: F344/N/MALE, Route: ORAL, Dose: 0, 200, 400, 600 PPM IN DIET FOR 105 WK (STUDY DURATION: 105 WK), Dose: 0, 200, 400, 600 PPM IN DIET FOR 105 WK (STUDY DURATION: 105 WK)) “inactive; negative”; (Species: RAT, Strain/Sex: F344/N/MALE, Route: ORAL, Dose: 0, 1000 PPM IN DIET FOR 52 WK (STUDY DURATION: 105 WK), Tumor Site: Type of Lesion: SKIN: KERATOACANTHOMA) “active; positive”.
On to `CCN(CC)c1ccc(C(=C2C=CC(=[N+](CC)CC)C=C2)c2ccc(S(=O)(=O)O)cc2S(=O)(=O)[O-])cc1`, for which, under “Species: RAT, Route: SUBCUTANEOUS, INTRAMUSCULAR, Tumor Site: Type of Lesion: INJECTION SITE”, the carcinogen call was “active; positive”.
As for `Cc1cc(N)ccc1N`, the carcinogen call runs as follows: (Species: MOUSE, Strain/Sex: B6C3F1/FEMALE, Route: ORAL, Dose: 0, 0.06, 0.1% OF DIET, TWA, Dose: 0, 0.06, 0.1% OF DIET, TWA) “inactive; negative”; (Species: MOUSE, Strain/Sex: B6C3F1/MALE, Route: ORAL, Dose: 0, 0.06, 0.1% OF DIET, TWA, Dose: 0, 0.06, 0.1% OF DIET, TWA) “inactive; negative”; (Species: RAT, Strain/Sex: F344/FEMALE, Route: ORAL, Dose: 0, 0.06, 0.2% OF DIET, TWA, Dose: 0, 0.06, 0.2% OF DIET, TWA) “inactive; negative”; (Species: RAT, Strain/Sex: F344/MALE, Route: ORAL, Dose: 0, 0.06, 0.2% OF DIET, TWA, Dose: 0, 0.06, 0.2% OF DIET, TWA) “inactive; negative”.
Take `CC(O)CN(C)c1ccc(NN)nn1` (configuration not stated): where the note is “Species: MOUSE, Strain/Sex: B6C3F1/MALE,FEMALE, Route: ORAL, Dose: 100, 200, 400 PPM IN DRINKING WATER FOR 80 WK, Dose: 100, 200, 400 PPM IN DRINKING WATER FOR 80 WK”, the carcinogen call was “inactive; negative”.
As for `CC(COc1ccc(C(C)(C)C)cc1)OS(=O)OCCCl` (configuration not stated), the carcinogen call reads like this: (Species: DOG, Strain/Sex: MONGREL/MALE,FEMALE, Route: ORAL, Dose: 0, 500, 828-1420 PPM IN DIET FOR 3.5 YR, Dose: 0, 500, 828-1420 PPM IN DIET FOR 3.5 YR, Tumor Site: Type of Lesion: BILE DUCT: ADENOCARCINOMA, GALL BLADDER: ADENOCARCINOMA) “active; positive”; (Species: MOUSE, Strain/Sex: B6C3F1/MALE,FEMALE, Route: GAVAGE/ORAL, Dose: 464 MG/KG FROM D 7-28 OF LIFE THEN 1112 PPM IN DIET, Tumor Site: Type of Lesion: LIVER: HEPATOMA) “active; positive”; (Species: RAT, Strain/Sex: WISTAR/MALE,FEMALE, Route: ORAL, Dose: 500, 1580, 5000 PPM IN DIET FOR 2 YR, Dose: 500, 1580, 5000 PPM IN DIET FOR 2 YR, Tumor Site: Type of Lesion: LIVER: HEPATOMA, CHOLANGIOMA) “active; positive”.
As for `[C-]#[Si+]`, the carcinogen call was “active; positive” (Species: RAT, Strain/Sex: AF/HAN, Route: INHALATION, Dose: 0, 1000 FIBERS/ML IN AIR 7 HR/D 5 D/WK FOR 1 YR (STUDY DURATION: LIFESPAN), Tumor Site: Type of Lesion: LUNG: ADENOMA, CARCINOMA) and “active; positive” (Species: RAT, Strain/Sex: F344/FEMALE, Route: INTRAPERITONEAL, Dose: 0, 20 MG SILICON CARBIDE WHISKERS ONCE (STUDY DURATION: LIFESPAN), Tumor Site: Type of Lesion: PLEURAL CAVITY: MESOTHELIOMA).
With `Cc1[nH]cnc1CSCCN=C(NC#N)N(C)N=O`, the carcinogen call reads like this: (Species: MOUSE, Strain/Sex: B6C3F1/FEMALE, Route: ORAL, Dose: 0, 18.8, 190 MG/D IN DRINKING WATER FOR LIFE ADMINISTERED TO MICE OF MOTHERS EXPOSED TO SAME DOSES THROUGH PREGNANCY AND, Dose: 0, 18.8, 190 MG/D IN DRINKING WATER FOR LIFE ADMINISTERED TO MICE OF MOTHERS EXPOSED TO SAME DOSES THROUGH PREGNANCY AND) “inactive; negative”; (Species: MOUSE, Strain/Sex: B6C3F1/MALE, Route: ORAL, Dose: 0, 18.8, 190 MG/D IN DRINKING WATER FOR LIFE ADMINISTERED TO MICE OF MOTHERS EXPOSED TO SAME DOSES THROUGH PREGNANCY AND, Dose: 0, 18.8, 190 MG/D IN DRINKING WATER FOR LIFE ADMINISTERED TO MICE OF MOTHERS EXPOSED TO SAME DOSES THROUGH PREGNANCY AND) “inactive; negative”; (Species: MOUSE, Strain/Sex: C57BL/FEMALE, Route: ORAL, Dose: 0, 18.8, 190 MG/D IN DRINKING WATER BEGINNING AT 7-8 WK OF AGE AND CONTINUING FOR STUDY DURATION (STUDY DURATION: LIFE S, Dose: 0, 18.8, 190 MG/D IN DRINKING WATER BEGINNING AT 7-8 WK OF AGE AND CONTINUING FOR STUDY DURATION (STUDY DURATION: LIFE S) “inactive; negative”; (Species: RAT, Strain/Sex: F344/FEMALE, Route: ORAL, Dose: 0, 150 MG/L IN DRINKING WATER 5D/WK FOR 106 WK FOR A TOTAL DOSE OF 0, 1600 MG (STUDY DURATION: 131 WK), Dose: 0, 150 MG/L IN DRINKING WATER 5D/WK FOR 106 WK FOR A TOTAL DOSE OF 0, 1600 MG (STUDY DURATION: 131 WK)) “inactive; negative”; (Species: RAT, Strain/Sex: F344/MALE, Route: ORAL, Dose: 0, 150 MG/L IN DRINKING WATER 5D/WK FOR 106 WK FOR A TOTAL DOSE OF 0, 1600 MG (STUDY DURATION: 131 WK), Dose: 0, 150 MG/L IN DRINKING WATER 5D/WK FOR 106 WK FOR A TOTAL DOSE OF 0, 1600 MG (STUDY DURATION: 131 WK)) “inactive; negative”; (Species: RAT, Strain/Sex: SPRAGUE-DAWLEY/FEMALE, Route: GAVAGE, Dose: 0, 50, 500 MG/KG 2/WK FOR 1 YR (STUDY DURATION: LIFETIME), Dose: 0, 50, 500 MG/KG 2/WK FOR 1 YR (STUDY DURATION: LIFETIME)) “inactive; negative”. In addition, the carcinogen call (Species: RAT, Strain/Sex: SPRAGUE-DAWLEY/MALE, Route: GAVAGE, Dose: 0, 50, 500 MG/KG 2/WK FOR 1 YR (STUDY DURATION: LIFETIME), Dose: 0, 50, 500 MG/KG 2/WK FOR 1 YR (STUDY DURATION: LIFETIME)) was “inactive; negative”.
